# Measurements: patent US7405206B2, “Anti-inflammatory androstane derivatives” (Glaxo Group Limited, priority 2001, dated 2008)
# pEC50: −log10 of the molar value.
# Assays:
# [1] = tested on: A549 cells stably transfected with a reporter gene containing the NF-κB responsive elements from the ELAM gene promoter coupled to sPAP; assay: Functional in vitro assay of glucocorticoid agonist activity (NF-κB/ELAM-sPAP reporter, TNF stimulated); format: cell-based; settings: compound 1 hour at 37° C., then TNF 10 ng/ml for 16 hours
# Description: Pharmacological activity was assessed in a functional in vitro assay of glucocorticoid agonist activity which is generally predictive of anti-inflammatory or anti-allergic activity in vivo.
# The functional assay was based on that described by K. P. Ray et al., Biochem J. (1997), 328, 707-715. A549 cells stably transfected with a reporter gene containing the NF-κB responsive elements from the ELAM gene promoter coupled to sPAP (secreted alkaline phosphatase) were treated with test compounds at appropriate doses for 1 hour at 37° C. The cells were then stimulated with tumour necrosis factor (TNF, 10 ng/ml) for 16 hours, at which time the amount of alkaline phosphatase produced is measured by a standard colourimetric assay. Dose response curves were constructed from which EC50 values were estimated.
# [2] = Hydrolysis in human plasma; format: in vitro ADME; settings: 37°, 5 μg/ml, LC-MS/MS
# Description: Compounds were incubated at 37° in human plasma at a concentration of 5 μg/ml. Aliquots were taken at time 0 and every 30 seconds for the next 10 minutes and were extracted by protein precipitation and analysed by LC-MS/MS.
# [3] = tested on: Male CD rats; assay: Rat model of thymus involution (systemic steroid effects); format: in vivo; settings: daily for 3 days
# Description: Systemic steroid effects were assessed in a rat model of thymus involution. Male CD rats were dosed intra-tracheally daily for 3 days with saline vehicle (20 μl Tween 80 in 100 ml saline) or with a suspension of test compound (dose volume 200 μL). On day 4 the animals were culled and the thymus removed and weighed.
# [4] = tested on: Balb/c mice; assay: Oxazolone induced contact hypersensitivity model (ear swelling); format: in vivo; settings: topical to right ear 1 hour prior to and 3 hours post oxazolone challenge; ear thickness 24 hours post challenge
# Description: Pharmacological activity in vivo was assessed using an oxazolone induced contact hypersensitivity model in Balb/c mice similar to that described by Cumberbatch et al., Immunology (2002), 105, 466-477.
# Balb/c female mice (18-20 g) were sensitised to oxazolone by the addition of 50 μl to the shaved right flank, of 2.5% oxazolone in acetone:olive oil (4:1). Control (unsensitised) mice were dosed with acetone:olive oil. Five days later all mice were challenged by the addition of 25 μl of 0.25% oxazolone in acetone olive oil (4:1) to the dorsal surface of both ears under isoflourane anaesthesia. 10 μl of solution of test compound at the appropriate concentration or vehicle (absolute ethanol) was applied to the dorsal surface of the right ear 1 hour prior to and 3 hours post oxazolone challenge under isoflourane anaesthesia. The left ear remained untreated to allow assessment of systemic exposure. Ear thickness measurements were taken using an engineer's micrometer prior to the addition of steroid and again 24 hours post oxazolone challenge. Results expressed as the percentage inhibition of ear swelling, from which EC50 values were calculated.
structure (smiles),measurement,setting,value
"COc1c(C(=O)OC2(C(=O)SC3CCOC3=O)C(C)CC3C4CC(F)C5=CC(=O)C=CC5(C)C4(F)C(O)CC32C)csc1Cl (stereo not drawn) [Example 12, 17α-[(5-Chloro-4-methoxy-thiophene-3-carbonyl)oxy]-6α,9α-difluoro-11β-hydroxy-16α-methyl-3-oxo-androsta-1,4-diene-17β-carbothioic acid S-(2-oxo-tetrahydro-furan-3S-yl)ester]",pEC50,[1],7.40
"C[C@@H]1C[C@H]2[C@@H]3C[C@H](F)C4=CC(=O)C=C[C@]4(C)[C@@]3(F)[C@@H](O)C[C@]2(C)[C@@]1(OC(=O)c1ccco1)C(=O)S[C@H]1CCOC1=O [Example 1, 6α,9α-Difluoro-17α-[(2-furanylcarbonyl)oxy]-11β-hydroxy-16α-methyl-3-oxo-androsta-1,4-diene-17β-carbothioic acid S-(2-oxo-tetrahydro-furan-3S-yl)ester]",half-life,[2],1.2 min
same,effect on thymus weight,[3]; 1000 μg/day intra-tracheally,no effect
same,EC50 (inhibition of ear swelling),[4],0.3 µg
"CCCC1O[C@@H]2C[C@H]3[C@@H]4CCC5=CC(=O)C=C[C@]5(C)[C@H]4[C@@H](O)C[C@]3(C)[C@]2(C(=O)CO)O1 (stereo partly shown) [budesonide, reference compound]",reduction in thymus weight,[3]; 100 mg/day intra-tracheally,65%
"Cc1noc(C)c1C(=O)OC1(C(=O)SC2CCOC2=O)C(C)CC2C3CC(F)C4=CC(=O)C=CC4(C)C3(F)C(O)CC21C (stereo not drawn) [Example 11, 6α,9α-Difluoro-17α-[(3,5-dimethylisoxazole-4-carbonyl)oxy]-11β-hydroxy-16α-methyl-3-oxo-androsta-1,4-diene-17β-carbothioic acid S-(2-oxo-tetrahydro-furan-3S-yl)ester]",pEC50,[1],7.55
"CC1CC2C3CC(F)C4=CC(=O)C=CC4(C)C3(F)C(O)CC2(C)C1(OC(=O)c1cc(Cl)sc1Cl)C(=O)SC1CCOC1=O (stereo not drawn) [Example 15, 17α-[(2,5-Dichlorothiophene-3-carbonyl)oxy]-6α,9α-difluoro-11β-hydroxy-16α-methyl-3-oxo-androsta-1,4-diene-17β-carbothioic acid S-(2-oxo-tetrahydro-furan-3S-yl)ester]",pEC50,[1],7.80
